# Reference: patent US10730913B1, “Antimicrobial analogues of gramicidin S” (priority 2018, dated 2020)
# Numbered stars: 1 amine (or outer) side, 2 acyl side, 3 side chain; on linkers, the order of the positions; unused ones are H or OH. Square brackets hold non-standard residues; d marks the D form. Peptide text beside a SMILES is read from it. X1 = NN([C@H](Cc1ccccc1)C(=O)[*:2])[*:1]; Orn(Nα-NH2) = NCCC[C@H](NN)C(=O)O; Orn = NCCC[C@H](N)C(=O)O
# Columns and labels:
# Type in all cases: cell-based
# Enterobacter cloacae = assay: MIC determination against ESKAPE pathogens (broth culture, 96-well, turbidity); conditions: Enterobacter cloacae strain 1454; 37° C.
# Description: (§1) The antimicrobial activity of the compounds disclosed herein was tested against a variety of bacteria. The bacterial strains comprised a panel of drug-resistant gram-positive and gram-negative bacteria known as ESKAPE pathogens. The minimum inhibitory concentration (MIC) for the compounds were determined as follows. Broth cultures of ESKAPE strains were grown overnight before being diluted 1 in 1000 in fresh media. Sterile 96-well plates were loaded with culture, and compounds (in DMSO) were added at decreasing concentrations to equal a total volume of 200 μL per well. Care was taken to not add more than 2.0% DMSO to any well. Plates were then incubated at 37° C., and MICs determined after 24 h by visual inspection for a lack of turbidity in wells. All assays were performed in triplicate with identical results obtained.
# Acinetobacter baumannii = assay: as above; conditions: Acinetobacter baumannii strain 5075; 37° C.
# Description: as §1
# Enterococcus faecium = assay: as above; conditions: Enterococcus faecium strain 1450; 37° C.
# Description: as §1
# Pseudomonas aeruginosa = assay: as above; conditions: Pseudomonas aeruginosa strain 1419; 37° C.
# Description: as §1
# Staphylococcus aureus = assay: as above; conditions: Staphylococcus aureus strain 635; 37° C.
# Description: as §1
# [1] = test system: Human red blood cells (hRBCs); assay: Hemolysis assay using whole human blood; conditions: for Hemolytic Activity (% Hemolysis): hRBCs, 15 min at 37° C., relative to 1.0% triton X-100
# Description: Hemolytic Activity: The hemolytic activity of the compounds disclosed herein was also tested. A hemolysis assay was performed using whole human blood (Bioreclamation). […] Cells were incubated for 15 min at 37° C. before being centrifuged at 5500 g for 1 min to pellet nonlysed hRBCs. The supernatant was removed, added to a 96-well microtiter plate, and the OD543 was read using a Biotek synergy2 plate reader. The negative control was vehicle only (DMSO), and the positive control was 1.0% triton X-100.
# gram-negative bacteria = assay: Antimicrobial activity, summary for gram-negative bacteria; conditions: compared to GS
# Description: as §1
Structure (SMILES),"MC90 Results, Ec (−) (Enterobacter cloacae)","MC90 Results, Ab (−) (Acinetobacter baumannii)","MC90 Results, Ef (+) (Enterococcus faecium)","MC90 Results, Pa (−) (Pseudomonas aeruginosa)","MC90 Results, Sa (+) (Staphylococcus aureus)",Hemolytic Activity (% Hemolysis) ([1]; 6.25 μM),Hemolytic Activity (% Hemolysis) ([1]; 12.5 μM),Hemolytic Activity (% Hemolysis) ([1]; 25 μM),Hemolytic Activity (% Hemolysis) ([1]; 50 μM),activity against gram-negative bacteria (gram-negative bacteria),toxicity to human cells compared to GS [1]
"CC(C)C[C@@H]1NC(=O)[C@H](CCCN)NC(=O)[C@H](C(C)C)NC(=O)[C@@H]2CCCN2C(=O)[C@@H](Cc2ccccc2)NC(=O)[C@H](CC(C)C)NC(=O)[C@H](CCCN)N(N)C(=O)[C@H](C(C)C)NC(=O)[C@@H]2CCCN2C(=O)[C@@H](Cc2ccccc2)NC1=O [Compound 3] (HELM PEPTIDE1{L.[dF].P.V.[Orn].L.[dF].P.V.[NCCC[C@@H](C(=O)[*:2])N(N)[*:1]]}$PEPTIDE1,PEPTIDE1,1:R1-10:R2$$$V2.0)",30 µM,6.5 µM,3 µM,13 µM,2 µM,0.00%,0.00%,1.49%,13.68%,–,–
"CC(C)C[C@@H]1NC(=O)[C@H](CCCN)N(N)C(=O)[C@H](C(C)C)NC(=O)[C@@H]2CCCN2C(=O)[C@@H](Cc2ccccc2)NC(=O)[C@H](CC(C)C)NC(=O)[C@H](CCCN)N(N)C(=O)[C@H](C(C)C)NC(=O)[C@@H]2CCCN2C(=O)[C@@H](Cc2ccccc2)NC1=O [Compound 7] (HELM PEPTIDE1{L.[dF].P.V.[NCCC[C@@H](C(=O)[*:2])N(N)[*:1]].L.[dF].P.V.[NCCC[C@@H](C(=O)[*:2])N(N)[*:1]]}$PEPTIDE1,PEPTIDE1,1:R1-10:R2$$$V2.0)",20 µM,4 µM,2 µM,10 µM,2 µM,0.00%,0.21%,3.57%,15.84%,improved significantly,–
CC(C)C[C@@H]1NC(=O)[C@H](CCCN)N(N)C(=O)[C@H](C(C)C)NC(=O)[C@@H]2CCCN2C(=O)[C@@H](Cc2ccccc2)N(N)C(=O)[C@H](CC(C)C)NC(=O)[C@H](CCCN)N(N)C(=O)[C@H](C(C)C)NC(=O)[C@@H]2CCCN2C(=O)[C@@H](Cc2ccccc2)N(N)C1=O [Compound 9] (cyclo(L[X1]PV[Orn(Nα-NH2)]L[X1]PV[Orn(Nα-NH2)])),>50 µM,5 µM,2 µM,15 µM,2 µM,0.00%,2.75%,6.19%,25.01%,–,exception
"CC(C)C[C@@H]1NC(=O)[C@H](CCCN)NC(=O)[C@H](C(C)C)NC(=O)[C@@H]2CCCN2C(=O)[C@@H](Cc2ccccc2)N(N)C(=O)[C@H](CC(C)C)NC(=O)[C@H](CCCN)NC(=O)[C@H](C(C)C)NC(=O)[C@@H]2CCCN2C(=O)[C@@H](Cc2ccccc2)N(N)C1=O [Compound 2] (HELM PEPTIDE1{L.[NN([C@H](Cc1ccccc1)C(=O)[*:2])[*:1]].P.V.[Orn].L.[NN([C@H](Cc1ccccc1)C(=O)[*:2])[*:1]].P.V.[Orn]}$PEPTIDE1,PEPTIDE1,1:R1-10:R2$$$V2.0)",>50 µM,12.5 µM,4 µM,35 µM,4 µM,0.00%,0.00%,2.84%,11.24%,–,–
"CC(C)C[C@@H]1NC(=O)[C@H](CCCN)NC(=O)[C@H](C(C)C)NC(=O)[C@@H]2CCCN2C(=O)[C@@H](Cc2ccccc2)N(N)C(=O)[C@H](CC(C)C)NC(=O)[C@H](CCCN)NC(=O)[C@H](C(C)C)NC(=O)[C@@H]2CCCN2C(=O)[C@@H](Cc2ccccc2)NC1=O [Compound 1] (HELM PEPTIDE1{L.[dF].P.V.[Orn].L.[NN([C@H](Cc1ccccc1)C(=O)[*:2])[*:1]].P.V.[Orn]}$PEPTIDE1,PEPTIDE1,1:R1-10:R2$$$V2.0)",>50 µM,>50 µM,>50 µM,>50 µM,>50 µM,0.00%,0.00%,0.00%,0.00%,–,–
"CC(C)C[C@@H]1NC(=O)[C@H](CCCN)N(N)C(=O)[C@H](C(C)C)NC(=O)[C@@H]2CCCN2C(=O)[C@@H](Cc2ccccc2)N(N)C(=O)[C@H](CC(C)C)NC(=O)[C@H](CCCN)NC(=O)[C@H](C(C)C)NC(=O)[C@@H]2CCCN2C(=O)[C@@H](Cc2ccccc2)NC1=O [Compound 4] (HELM PEPTIDE1{L.[dF].P.V.[Orn].L.[NN([C@H](Cc1ccccc1)C(=O)[*:2])[*:1]].P.V.[NCCC[C@@H](C(=O)[*:2])N(N)[*:1]]}$PEPTIDE1,PEPTIDE1,1:R1-10:R2$$$V2.0)",30 µM,6.5 µM,3 µM,15 µM,2 µM,0.00%,0.00%,1.98%,14.00%,–,–
"CC(C)C[C@@H]1NC(=O)[C@H](CCCN)NC(=O)[C@H](C(C)C)NC(=O)[C@@H]2CCCN2C(=O)[C@@H](Cc2ccccc2)N(N)C(=O)[C@H](CC(C)C)NC(=O)[C@H](CCCN)N(N)C(=O)[C@H](C(C)C)NC(=O)[C@@H]2CCCN2C(=O)[C@@H](Cc2ccccc2)NC1=O [Compound 6] (HELM PEPTIDE1{L.[dF].P.V.[NCCC[C@@H](C(=O)[*:2])N(N)[*:1]].L.[NN([C@H](Cc1ccccc1)C(=O)[*:2])[*:1]].P.V.[Orn]}$PEPTIDE1,PEPTIDE1,1:R1-10:R2$$$V2.0)",–,–,–,–,–,0.00%,0.00%,3.24%,17.91%,–,–
CC(C)C[C@@H]1NC(=O)[C@H](CCCN)NC(=O)[C@H](C(C)C)NC(=O)[C@@H]2CCCN2C(=O)[C@@H](Cc2ccccc2)N(N)C(=O)[C@H](CC(C)C)NC(=O)[C@H](CCCN)N(N)C(=O)[C@H](C(C)C)NC(=O)[C@@H]2CCCN2C(=O)[C@@H](Cc2ccccc2)N(N)C1=O [Compound 5] (cyclo(L[X1]PV[Orn]L[X1]PV[Orn(Nα-NH2)])),–,–,–,–,–,0.21%,0.00%,2.82%,17.93%,–,–
CC(C)C[C@@H]1NC(=O)[C@H](CCCN)N(N)C(=O)[C@H](C(C)C)NC(=O)[C@@H]2CCCN2C(=O)[C@@H](Cc2ccccc2)N(N)C(=O)[C@H](CC(C)C)NC(=O)[C@H](CCCN)N(N)C(=O)[C@H](C(C)C)NC(=O)[C@@H]2CCCN2C(=O)[C@@H](Cc2ccccc2)NC1=O [Compound 8] (cyclo(L[dF]PV[Orn(Nα-NH2)]L[X1]PV[Orn(Nα-NH2)])),>50 µM,6 µM,2 µM,12 µM,2 µM,0.00%,0.88%,2.91%,15.07%,–,–
